In PMC9266449, “Dried Blood Spots as Matrix for Evaluation of Valproate Levels and the Immediate and Delayed Metabolomic Changes Induced by Single Valproate Dose Treatment” (International Journal of Molecular Sciences, 2022):
Where two headings read alike, the source gives them in different places.

What was measured:
[1] = source not stated; cited from earlier work
[2] = Pharmacokinetics of VPA from DBS drug levels after intravenous bolus in rats; type: in vivo; settings: Sprague-Dawley, rat, dried blood spots (whole blood), iv bolus 200 mg/kg, mean ± SD; for AUC(0-t): read-out: Area under the curve (AUC0–8 h); for clearance: read-out: Clearance (CL) (converted); for half-life: read-out: HL Lambda Z (terminal elimination half-life) (converted); for MRT: read-out: Mean residence time (MRT); for Vd: read-out: Volume of distribution (Vd)
Method: Sprague-Dawley rats (7–8 weeks old, males: 10, females: 10) were obtained from the Comparative Medicine Center (CMC) of NUS. The rats were housed in a specific pathogen free animal facility (24 °C, 60% relative humidity) at CMC and kept on a 12-h light/dark cycle with free access to food and water. Twenty-four hours before the study, a polyethylene tubing (I.D. 0.58 mm, O.D. 0.965 mm, Becton Dickinson, Sparks, MD 21152, USA) was implanted into the right jugular vein under isoflurane anesthesia. This catheter was used for drug injection and blood sampling.
At 9 am on the study day, five rats from each gender were administered VPA intravenously at a dose of 200 mg/kg body weight (treatment group). The rest of the 5 rats from each gender were given sodium chloride 0.9% intravenously, as the placebo control group. Prior to VPA administration, blood samples (approximately 300 µL) from each of the 10 male rats and 10 female rats were collected and kept in an ice box until they were processed. After VPA/saline injection, blood samples were collected at 0.5, 2.5, 5, 8 and 24 h, respectively, from the 20 rats. The 6 time points were anticipated to capture the metabolite fluctuations in a day. Within 30 min of collection, the blood samples were spotted in duplicates of 25 µL onto Guthrie paper (UK Neonatal Screening Laboratories Network, Whatman 903®) and were left to dry in the fume hood for at least 3 h, the minimum time required for complete dryness. After drying, the DBS were punched, and the cores (6 mm) obtained were placed inside the respective Eppendorf tubes. All the acquired DBS were stored at −80 °C until processing for analysis. One DBS was used for metabolomic analysis and the other one was used for drug level quantification.
Extraction of VPA from DBS was carried out using 480 µL of acetonitrile and 20 µL of 1 N NaOH, vortexed for 1 min and followed by sonication for 5 min. The resulting extracts were centrifuged at 3500× g, 22 °C for 15 min [29, 30]. An amount of 400 µL of the supernatant were transferred into 15 mL Kimble centrifuge glass tubes for drying under a stream of nitrogen at 30 °C, followed by the removal of water using toluene and drying under nitrogen again. The dried sample was then derivatized using 50 µL MSTFA with 1% TMCS with incubation at 70 °C for an optimum period of 50 min. […] After vortexing for 1 min, 80 µL of the final volume was transferred into a 200 µL conical base inert glass insert, placed inside a 2 mL amber autosampler glass vial.
An assay for quantification of VPA concentrations in DBS was optimized in accordance to the International Conference of Harmonization (ICH) guideline. The settings were as follows: an injection temperature of 200 °C, ion source temperature of 220 °C, split ratio of 1:5, the starting temperature set at 90 °C for 0.2 min, with initial gradient ramp at 10 °C/min to 120 °C and held for 0.5 min. The temperature was then increased at 65 °C/min up to 285 °C and held for another 0.5 min. The temperature ramp was then reduced to 10 °C/min to reach a temperature of 291 °C and held for 0.2 min, before continuing at 60 °C/min to reach a final temperature of 300 °C, with a hold at 300 °C for 5 min. Selective ion monitoring (SIM) mode was applied for identifier ions with an m/z value of 201 and qualifying ions with m/z values of 145 and 129. A calibration curve was established with 6 concentrations, ranging from 0.5 µg/mL to 5 mg/mL.
Concentration-time profiles of VPA after intravenous bolus injection were fitted into a non-compartmental model (WinNonlin Professional, Version 5.1, Pharsight Corporation, Mountain View, CA, USA). The pharmacokinetic parameters obtained included the area under the DBS concentration versus time curve (AUC0–8 h), apparent volume of distribution (Vd) clearance (Cl), terminal elimination half-life (HL Lambda Z) and mean residence time (MRT) of VPA.

[3] = human; cited from earlier work
[4] = rats; cited from earlier work
[5] = design: method as in PMID 3146521; settings: female rats, 200 mg/kg oral gavage, cited from earlier work
[6] = design: method as in PMID 390116; settings: whole blood concentrations, cited from earlier work
[7] = design: method as in PMID 390116; settings: mean ± standard error; cited from earlier work
[8] = both sexes, all rats (male and female pooled)

## C[C@H](N)C(=O)O [Alanine]
[1]
  LogP: -0.68

## CC(C)CCC[C@@H](C)[C@H]1CC[C@H]2[C@@H]3CC=C4C[C@@H](O)CC[C@]4(C)[C@H]3CC[C@]12C [Cholesterol]
[1]
  LogP: 7.11

## CCCCCCCCCCCCCCCC(=O)O [Palmitic acid]
[1]
  LogP: 6.26

## CCCC(CCC)C(=O)O [VPA, 2-propyl-pentanoic acid]
[2]; female rats
  AUC(0-t): 363 ± 18.7 µg·h/mL
  clearance: 2 mL/min
  half-life: 2.01 ± 0.24 h
  MRT: 1.46 ± 0.4 h
  Vd: 0.21 ± 0.01 L
[2]; male rats
  AUC(0-t): 126 ± 39.2 µg·h/mL
  clearance: 8.5 mL/min
  half-life: 1.71 ± 0.18 h
  MRT: 1.14 ± 0.28 h
  Vd: 0.82 ± 0.23 L
[2]; [8]
  AUC(0-t): 245 ± 133 µg·h/mL
  clearance: 5.33 mL/min
  half-life: 1.86 ± 0.26 h
  MRT: 1.3 ± 0.36 h
  Vd: 0.51 ± 0.36 L
[3]
  Protein bound: 90%
[4]
  Protein bound: 64%
[5]; plasma
  AUC: 1019 ± 769 µg·h/mL
  Maximum concentration (Cmax) at 0.5 h: 341 ± 18 µg/mL
[5]
  t1/2 (plasma half-life): 1.0 ± 0.2 h
[6]; male rats, 150 mg/kg
  t1/2: 0.68 h
[6]; rats dosed at 15 mg/kg
  CL: 0.525 ± 0.065 L/h
  Vd: 0.155 ± 0.025 L
[7]
  Plasma/whole blood concentrations ratio: 1.46 ± 0.03
